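96-well plates; 48 h exposure; 5 concentrations. Endpoints by linear interpolation between flanking doses. Not reached: highest tested concentration assigned. GI50 marks 50% less growth.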 Calls of active or inactive are those of the source. No stated cut-off is given here; in the data, active = GI50 up to about 1.1 µM and inactive = higher.
Tests used:
Experiment in all cases: NCI tumour cell line growth inhibition, 48 h
RPMI-8226 = tested on: RPMI-8226
SK-MEL-28 = tested on: SK-MEL-28
SR = tested on: SR
NCI/ADR-RES = tested on: NCI/ADR-RES
786-0 = tested on: 786-0
U-251 = tested on: U-251
SF-268 = tested on: SF-268
UACC-62 = tested on: UACC-62
NCI-H522 = tested on: NCI-H522
RXF 393 = tested on: RXF 393
SNB-75 = tested on: SNB-75
BT-549 = tested on: BT-549
NCI-H23 = tested on: NCI-H23
COLO 205 = tested on: COLO 205
SW-620 = tested on: SW-620
NCI-H460 = tested on: NCI-H460
SF-295 = tested on: SF-295
UO-31 = tested on: UO-31
OVCAR-3 = tested on: OVCAR-3
CCRF-CEM = tested on: CCRF-CEM

Compound	GI50 (RPMI-8226)	GI50 (SK-MEL-28)	GI50 (SR)	GI50 (NCI/ADR-RES)	GI50 (786-0)	GI50 (U-251)	GI50 (SF-268)	GI50 (UACC-62)	GI50 (NCI-H522)	GI50 (RXF 393)	GI50 (SNB-75)	GI50 (BT-549)	GI50 (NCI-H23)	GI50 (COLO 205)	GI50 (SW-620)	GI50 (NCI-H460)	GI50 (SF-295)	GI50 (UO-31)	GI50 (OVCAR-3)	GI50 (CCRF-CEM)
Cc1nc2ccccc2nc1N1CCCC1	> 100 µM (inactive)	> 100 µM (inactive)	> 100 µM (inactive)	> 100 µM (inactive)	> 100 µM (inactive)	> 100 µM (inactive)	> 100 µM (inactive)	> 100 µM (inactive)	> 100 µM (inactive)	> 100 µM (inactive)	68.2 µM (inactive)	> 100 µM (inactive)	> 100 µM (inactive)	> 100 µM (inactive)	> 100 µM (inactive)	> 100 µM (inactive)	> 100 µM (inactive)	–	–	–
O=C(O)CNC(=O)C1NC(C(F)(F)F)(C(F)(F)F)OC1(C(F)(F)F)C(F)(F)F (configuration not stated)	> 100 µM (inactive)	> 100 µM (inactive)	> 100 µM (inactive)	> 100 µM (inactive)	> 100 µM (inactive)	> 100 µM (inactive)	> 100 µM (inactive)	> 100 µM (inactive)	> 100 µM (inactive)	> 100 µM (inactive)	> 100 µM (inactive)	> 100 µM (inactive)	> 100 µM (inactive)	> 100 µM (inactive)	> 100 µM (inactive)	> 100 µM (inactive)	92.3 µM (inactive)	> 100 µM (inactive)	> 100 µM (inactive)	–
CC1OC(OC2C(Oc3cc(O)c4c(c3)O[C@H](c3ccc(O)cc3)CC4=O)OC(CO)C(O)C2O)C(O)C(O)C1O (some centres not stated)	> 100 µM (inactive)	> 100 µM (inactive)	> 100 µM (inactive)	> 100 µM (inactive)	> 100 µM (inactive)	> 100 µM (inactive)	> 100 µM (inactive)	> 100 µM (inactive)	> 100 µM (inactive)	> 100 µM (inactive)	> 100 µM (inactive)	> 100 µM (inactive)	> 100 µM (inactive)	> 100 µM (inactive)	> 100 µM (inactive)	–	> 100 µM (inactive)	> 100 µM (inactive)	> 100 µM (inactive)	> 100 µM (inactive)
CCOC(=O)C1CN(C2CC2)CCC1=O (configuration not stated)	> 100 µM (inactive)	> 100 µM (inactive)	> 100 µM (inactive)	> 100 µM (inactive)	> 100 µM (inactive)	> 100 µM (inactive)	> 100 µM (inactive)	> 100 µM (inactive)	–	> 100 µM (inactive)	> 100 µM (inactive)	> 100 µM (inactive)	> 100 µM (inactive)	> 100 µM (inactive)	> 100 µM (inactive)	> 100 µM (inactive)	> 100 µM (inactive)	> 100 µM (inactive)	> 100 µM (inactive)	> 100 µM (inactive)
Nn1c(CCCCCCCCc2nnc(-c3c(O)ccc4ccccc34)n2N)nnc1-c1c(O)ccc2ccccc12	> 100 µM (inactive)	> 100 µM (inactive)	> 100 µM (inactive)	> 100 µM (inactive)	> 100 µM (inactive)	> 100 µM (inactive)	> 100 µM (inactive)	> 100 µM (inactive)	> 100 µM (inactive)	–	> 100 µM (inactive)	> 100 µM (inactive)	> 100 µM (inactive)	> 100 µM (inactive)	> 100 µM (inactive)	> 100 µM (inactive)	> 100 µM (inactive)	> 100 µM (inactive)	> 100 µM (inactive)	–
N=C(N)NC(=N)Nc1c(F)c(F)c(F)c(F)c1F	52.7 µM (inactive)	> 100 µM (inactive)	17.3 µM (inactive)	> 100 µM (inactive)	> 100 µM (inactive)	> 100 µM (inactive)	> 100 µM (inactive)	> 100 µM (inactive)	93.8 µM (inactive)	> 100 µM (inactive)	> 100 µM (inactive)	92.3 µM (inactive)	87.1 µM (inactive)	54 µM (inactive)	> 100 µM (inactive)	90.4 µM (inactive)	> 100 µM (inactive)	> 100 µM (inactive)	> 100 µM (inactive)	–
COc1cc(Nc2nc3ccccc3nc2C(=O)O)cc(OC)c1OC	70 µM (inactive)	30.1 µM (inactive)	> 100 µM (inactive)	23 µM (inactive)	75.3 µM (inactive)	> 100 µM (inactive)	28.3 µM (inactive)	–	46 µM (inactive)	> 100 µM (inactive)	47.2 µM (inactive)	89.9 µM (inactive)	75.7 µM (inactive)	> 100 µM (inactive)	> 100 µM (inactive)	65.3 µM (inactive)	23.9 µM (inactive)	21.6 µM (inactive)	45.8 µM (inactive)	83.2 µM (inactive)
CCCC[Si](CCCC)(CCCC)O[C@@H](/C=C/C(=O)OCC)[C@H](Cc1ccccc1)O[Si](CCCC)(CCCC)CCCC	> 100 µM (inactive)	–	> 100 µM (inactive)	> 100 µM (inactive)	> 100 µM (inactive)	> 100 µM (inactive)	> 100 µM (inactive)	> 100 µM (inactive)	> 100 µM (inactive)	> 100 µM (inactive)	> 100 µM (inactive)	> 100 µM (inactive)	> 100 µM (inactive)	> 100 µM (inactive)	> 100 µM (inactive)	> 100 µM (inactive)	> 100 µM (inactive)	> 100 µM (inactive)	–	> 100 µM (inactive)
CC[C@@]1(O)C(=O)OCc2c1cc1n(c2=O)Cc2c-1nc1ccccc1c2/C=N\NC(=O)C(C)N (some centres not stated)	–	17.8 µM (inactive)	< 0.01 µM (active)	0.241 µM (active)	0.069 µM (active)	< 0.0195 µM (active)	< 0.017 µM (active)	< 0.01 µM (active)	0.432 µM (active)	1.04 µM (active)	< 0.0298 µM (active)	0.303 µM (active)	< 0.0214 µM (active)	7.11 µM (inactive)	1.37 µM (inactive)	< 0.0243 µM (active)	< 0.0371 µM (active)	0.182 µM (active)	7.06 µM (inactive)	< 0.01 µM (active)
Cc1nn(C(=O)c2ccc(Cl)cc2)c2c1C(c1ccccc1O)SC(=N)N2 (configuration not stated)	> 10 µM (inactive)	> 10 µM (inactive)	> 10 µM (inactive)	> 10 µM (inactive)	> 10 µM (inactive)	> 10 µM (inactive)	> 10 µM (inactive)	> 10 µM (inactive)	> 10 µM (inactive)	> 10 µM (inactive)	> 10 µM (inactive)	> 10 µM (inactive)	> 10 µM (inactive)	> 10 µM (inactive)	> 10 µM (inactive)	> 10 µM (inactive)	> 10 µM (inactive)	–	> 10 µM (inactive)	> 10 µM (inactive)
Cc1nn(C(=O)c2ccncc2)c2c1C(c1cccc([N+](=O)[O-])c1)SC(=N)N2 (configuration not stated)	> 10 µM (inactive)	> 10 µM (inactive)	> 10 µM (inactive)	> 10 µM (inactive)	> 10 µM (inactive)	> 10 µM (inactive)	> 10 µM (inactive)	> 10 µM (inactive)	> 10 µM (inactive)	> 10 µM (inactive)	> 10 µM (inactive)	> 10 µM (inactive)	> 10 µM (inactive)	> 10 µM (inactive)	> 10 µM (inactive)	> 10 µM (inactive)	> 10 µM (inactive)	–	> 10 µM (inactive)	> 10 µM (inactive)
CC(C)(Oc1ccc(Cl)cc1)C(=O)N(C(=O)N1CCC(c2ccccc2)CC1)c1ccccc1	2.99 µM (inactive)	> 100 µM (inactive)	> 100 µM (inactive)	> 29.6 µM (inactive)	> 100 µM (inactive)	> 25.2 µM (inactive)	> 100 µM (inactive)	> 57.5 µM (inactive)	–	13.6 µM (inactive)	> 26.1 µM (inactive)	23.4 µM (inactive)	8.79 µM (inactive)	10 µM (inactive)	22.4 µM (inactive)	16 µM (inactive)	23.8 µM (inactive)	22.4 µM (inactive)	> 73.5 µM (inactive)	3.03 µM (inactive)
COc1nc2c(c(=O)[nH]1)N=C(c1ccccc1)CC(c1ccccc1)N2 (configuration not stated)	27.2 µM (inactive)	72.9 µM (inactive)	> 10 µM (inactive)	27.3 µM (inactive)	37.7 µM (inactive)	44.9 µM (inactive)	–	44.7 µM (inactive)	35.1 µM (inactive)	31 µM (inactive)	15.3 µM (inactive)	37.4 µM (inactive)	74.3 µM (inactive)	> 100 µM (inactive)	35.7 µM (inactive)	35.6 µM (inactive)	49.1 µM (inactive)	39.6 µM (inactive)	> 100 µM (inactive)	36.4 µM (inactive)
C[C@H](OC(=O)/C=C/c1ccc(O)c(O)c1)[C@H](C)OC(=O)/C=C/c1ccc(O)c(O)c1	9.59 µM (inactive)	11.5 µM (inactive)	8.18 µM (inactive)	12.2 µM (inactive)	4.73 µM (inactive)	10.8 µM (inactive)	7.43 µM (inactive)	2.93 µM (inactive)	6.98 µM (inactive)	6.87 µM (inactive)	15.7 µM (inactive)	10.4 µM (inactive)	4.29 µM (inactive)	20.3 µM (inactive)	3.93 µM (inactive)	4.11 µM (inactive)	6.27 µM (inactive)	4.8 µM (inactive)	4.24 µM (inactive)	–
